Experiments:
[1] = system: chymotrypsin and chymotrypsin-like enzymes; conditions: cited from earlier work
[2] = system: Cardiac muscle adhesion models; test: Prevention of adhesion by oral administration in hamster cardiac muscle adhesion model; type: in vivo, Syrian hamsters; conditions: 10 mg/kg orally once a day
Method: Syrian hamsters (SLC Co., Ltd.), 6 weeks of age (weighing 85-90 g), were subject to abdominal middle incision to scrape their hearts. Cardiac muscle adhesion models were prepared. Suc-Val-Pro-Phe^P(OPh)2 (10 mg/kg) (eight cases) or placebo (eight cases) was forcibly orally administered using a canal once a day from the 3rd day before the model preparation to the 14th day after the model preparation. The adhesion levels at the 14th day after the model preparation were compared to study. Adhesion scores are as follows. Student-t test was used to test a significant difference in adhesion core.
Adhesion level 0: A heart is easily taken out, and the heart exists independently from the circumference, as is similar to a normal heart.
Adhesion level 1: A heart is observed to adhere to the circumferential tissue at one site by a thin film, but the adhesion site can be simply freed to release the heart.
Adhesion level 2: A heart is observed to adhere to the circumferential tissue at a few sites, but the adhesion sites can be freed by a traction force to release the heart.
Adhesion level 3: A heart is firmly adhered, but is distinguishable from, to the circumferential tissue at several sites, and it is hard to release the heart without a strong traction force.
Adhesion level 4: Excessive cell growth and fibrosis occur around a heart, and the heart is observed to adhere to the circumferential tissue. The heart is so firmly adhered to the circumferential tissue that the heart is difficult to release even by a peeling traction force.

[3] = cited from earlier work
chymase = molecular target: T1, chymase (Homo sapiens, UniProt P23946); test: Chymase activity in blood vessel tissue of the living body after use during operation; type: in vivo; conditions: 10 μM during the operation; for 4 weeks
T1 construct: the chymase activity in the blood vessel tissue of the living body; from tissue; host or cells: blood vessel tissue of the living body
T1 sequence (P23946 22-247): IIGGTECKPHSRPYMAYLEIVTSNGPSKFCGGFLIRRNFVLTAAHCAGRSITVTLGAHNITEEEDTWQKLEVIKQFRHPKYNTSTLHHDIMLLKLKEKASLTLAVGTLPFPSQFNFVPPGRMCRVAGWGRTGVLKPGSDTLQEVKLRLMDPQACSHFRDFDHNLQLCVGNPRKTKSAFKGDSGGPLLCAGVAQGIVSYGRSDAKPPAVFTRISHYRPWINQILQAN
Method: The medicament of the present invention allows at least one protease inhibitor to be administered in a substantially sufficient amount to permit epithelialization in the site of adhesion formation. […] The effective administration amount of chymase inhibitor (Suc-Val-Pro-L-Phe^P(OPh)2) can be selected in the range of 0.0001 to 100 mg per 1 kg of adult body weight, per one day. For example, it can be administered intravenously by an amount selected in the range from 0.0001 to 100 mg, preferably from 0.01 to 1 mg, and orally by an amount selected in the range from 0.1 to 100 mg, preferably from 0.1 to 10 mg. Furthermore, it can be intravenously applied by an amount in the range from 0.0001 to 1000 mg, preferably from 0.1 to 100 mg.

human leukocyte elastase = human leukocyte elastase (Homo sapiens, UniProt P08246); conditions: cited from earlier work
Sequence of human leukocyte elastase (P08246 30-267): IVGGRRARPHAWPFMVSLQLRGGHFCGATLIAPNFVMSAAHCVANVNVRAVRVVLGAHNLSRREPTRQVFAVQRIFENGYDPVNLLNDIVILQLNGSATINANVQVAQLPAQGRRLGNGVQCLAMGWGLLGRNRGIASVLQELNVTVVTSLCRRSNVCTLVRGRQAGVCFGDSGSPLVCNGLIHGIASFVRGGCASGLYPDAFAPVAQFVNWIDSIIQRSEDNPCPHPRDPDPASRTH

[4] = 3rd day before to 14th day after model preparation, eight cases

Compound: Suc-Val-Pro-Phe^P(OPh)2
- inhibitor potency for chymotrypsin and chymotrypsin-like enzymes [1]: relatively potent inhibitor
- cases ranked as adhesion level 0 [2, 4]: 75%
- cases ranked as adhesion level 2 [2, 4]: 12.5%
- cases ranked as adhesion level 4 [2, 4]: 12.5%
- adhesion level versus placebo group ([2]; 14th day, Student-t test): fell down significantly in adhesion level
- half-life in human blood plasma [3]: about 20 hours

Compound: CC(C)C(NC(=O)CCC(=O)O)C(=O)N1CCCC1C(=O)NC(Cc1ccccc1)P(=O)(Oc1ccccc1)Oc1ccccc1 [Suc-Val-Pro-L-Phe^P(OPh)2]
- suppression of chymase activity in the blood vessel tissue (chymase): suppress significantly
- half-life in human blood plasma [3]: about 20 hours

Compound: Boc-Val-Pro-Val^P(OPh)2
- inhibitor potency with human leukocyte elastase (human leukocyte elastase): relatively potent inhibitors

Compound: Meo-Suc-Ala-Ala-Pro-Val^P(OPh)2
- inhibitor potency with human leukocyte elastase (human leukocyte elastase): relatively potent inhibitors
